Test results as given in publication PMC10281575, “PfCRT mutations conferring piperaquine resistance in falciparum malaria shape the kinetics of quinoline drug binding and transport” (PLOS Pathogens, 2023).
“And” between values parts separate entries of the source, which are not always exact repeats. Equal entries are not always repeated.

What was measured:
PfCRT^Dd2_F145I = molecular target: T1, PfCRT^Dd2_F145I (Plasmodium falciparum, UniProt Q8IBZ9, A220S/F145I/I356T/K76T/M74I/N326S/N75E/Q271E/R371I); experiment: Radiolabeled drug uptake in X. laevis oocytes expressing PfCRT^Dd2_F145I; assay type: cell-based
T1 construct: expressed in transfected cells; host or cells: Xenopus laevis oocytes injected with in vitro transcribed RNA (pSP64T)
T1 sequence (Q8IBZ9 1-424 M74I/N75E/K76T/F145I/A220S/Q271E/N326S/I356T/R371I): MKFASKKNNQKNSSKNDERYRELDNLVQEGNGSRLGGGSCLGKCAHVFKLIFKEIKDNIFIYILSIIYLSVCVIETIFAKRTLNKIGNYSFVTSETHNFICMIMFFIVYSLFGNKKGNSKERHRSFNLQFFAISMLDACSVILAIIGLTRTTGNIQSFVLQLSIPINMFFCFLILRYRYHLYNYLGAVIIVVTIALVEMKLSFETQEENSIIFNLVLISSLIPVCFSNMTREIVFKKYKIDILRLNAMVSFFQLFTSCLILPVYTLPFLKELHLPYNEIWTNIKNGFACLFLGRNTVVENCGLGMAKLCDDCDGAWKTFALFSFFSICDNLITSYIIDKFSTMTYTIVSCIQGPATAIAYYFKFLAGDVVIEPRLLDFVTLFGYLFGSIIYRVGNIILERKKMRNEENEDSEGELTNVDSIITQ
Text: The two kinetic parameters were derived by fitting the Michaelis-Menten equation to the kinetic data (Table 1).
A codon-optimized coding sequence of the Dd2 isoform of PfCRT (PfCRT^Dd2) was subcloned into the pSP64T expression vector [21]. To generate the necessary mutations to introduce the amino acid substitutions H97Y, F145I, M343L or G353V into the pfcrt sequence, the overlap extension method was used. A region from the 5’-untranslated Xenopus β-globin sequence to the respective 3’ region, containing the full length pfcrt coding sequence, was amplified using the following primer pairs: for the H97Y mutation, numbers 1/4 and 2/3; for the F145I mutation, numbers 1/6 and 2/5; for the M343L mutation, numbers 1/8 and 2/7; and for the G353V mutation, numbers 1/10 and 2/9 (for primers, see S2 Table). Both PCR products were used as template for amplification of the final product using primers number 1/2. The resulting fragment was cloned into the pSP64T expression vector, and the presence of the desired mutation was confirmed by sequencing.
(§1) Adult female X. laevis frogs (purchased from NASCO) were anesthetized by submersion in a solution of 0.3% (w/v) 3-amino benzoate methanesulfonate for 15 min. Sections of the ovary were surgically removed and placed in Ca^2+-free ND96 buffer supplemented with 0.1% collagenase D (w/v; Roche), 0.5% BSA (w/v) and 9 mM Na2HPO4 at 18°C for 14–16 h while gently shaking. The oocytes were then washed several times with ND96 buffer (5 mM HEPES, pH 7.5, 96 mM NaCl, 2 mM KCl, 1.8 mM CaCl2, 1 mM MgCl2), supplemented with […] gentamycin. Healthy-looking stage V-VI oocytes were manually selected and randomly grouped for injection. A codon-optimized coding sequence of PfCRT was subcloned into the pSP64T expression vector and subsequently linearized using the restriction endonuclease BamHI or SalI (New England Biolabs GmbH). RNA for injection was transcribed in vitro using the mMESSAGE mMACHINE SP6 Transcription kit (Ambion), diluted with nuclease-free water to a final concentration of 0.6 μg/μL and stored at -80°C. RNA was injected using precision-bore glass capillary tubes (3.5-inch glass capillaries; Drummond Scientific Co.), which were pulled on a vertical puller (P-87 Flaming/Brown micropipette puller, Sutter Instrument Co.) and graduated. The micropipettes were connected to a microinjector (Nanoject II Auto-Nanoliter Injector, Drummond Scientific Co.). Injection was conducted under stereomicroscopic control. 50 nL of nuclease-free water alone (control oocytes) or 50 nL of nuclease-free water containing 30 ng of RNA was injected per oocyte. Injected oocytes were kept for 72 h at 18°C in ND96 buffer with two daily buffer changes before being used for further experiments.
(§2) Drug transport assays were performed as previously described. Briefly, measurements of radiolabeled drug uptake were made over 1 h, unless otherwise specified. […] Where specified, one or more unlabeled drugs were also present at the indicated concentrations. […] The uptake assays were terminated by removing the oocytes from the reaction medium and washing them three times with 2 mL of ice-cold ND96 buffer. Each oocyte was transferred to a separate scintillation vial and lysed by the addition of 200 μL of a 5% SDS solution. The radioactivity in the sample was measured using a liquid scintillation analyser Tri-Carb 4910 TR (PerkinElmer). Water-injected oocytes were analyzed in parallel as a negative control. The buffer from each condition was measured in duplicate in parallel to each experiment to transform counts per minute into pmol of drug. Drug uptake attributable to PfCRT was determined by subtracting the background uptake from water-injected oocytes from that of PfCRT-expressing oocytes.

water-injected oocytes = experiment: Radiolabeled drug uptake in water-injected control oocytes (intrinsic drug accumulation); assay type: cell-based, Xenopus laevis; settings: 50 μM PPQ, pH 6.0; one value per biological replicate
Method: as §1
as §2, with “oocytes. In all cases, at least three independent experiments were performed on oocytes from different frogs, and for each condition in an experiment, measurements were made from 10 oocytes per treatment.” for “oocytes.”

[1] = 50 μM PPQ, pH 6.0, total uptake, one value per biological replicate
[2] = 50 μM PPQ, pH 6.0, water-injected uptake subtracted, per replicate
[3] = 60 min, pH 6, per biological replicate

For `Clc1ccc2c(N3CCN(CCCN4CCN(c5ccnc6cc(Cl)ccc56)CC4)CC3)ccnc2c1` [PPQ, piperaquine], the “PfCRTDd2_F145I-mediated PPQ uptake at 10 µM PPQ” value (PfCRT^Dd2_F145I; 10 µM PPQ, single replicates) was 11.21 pmol oocyte-1 h-1 and 11.88 pmol oocyte-1 h-1 and 9.04 pmol oocyte-1 h-1, the “PfCRTDd2_F145I PPQ uptake at 10 min” value (PfCRT^Dd2_F145I; [1]) was 41.61 pmol oocyte-1 and 17.68 pmol oocyte-1 and 66.82 pmol oocyte-1 and 63.70 pmol oocyte-1 and 39.93 pmol oocyte-1 and the “PfCRTDd2_F145I PPQ uptake at 30 min” value (PfCRT^Dd2_F145I; [1]) was 65.21 pmol oocyte-1 and 116.16 pmol oocyte-1 and 126.02 pmol oocyte-1. The “PfCRTDd2_F145I PPQ uptake at 60 min” value (PfCRT^Dd2_F145I; [1]) was 236.23 pmol oocyte-1 and 329.69 pmol oocyte-1 and 256.17 pmol oocyte-1 and 126.53 pmol oocyte-1 and 203.02 pmol oocyte-1 and 85.96 pmol oocyte-1 and 54.49 pmol oocyte-1 and 109.72 pmol oocyte-1 and 205.44 pmol oocyte-1 and 121.75 pmol oocyte-1 and 41.63 pmol oocyte-1, the “PfCRTDd2_F145I PPQ uptake at 90 min” value (PfCRT^Dd2_F145I; [1]) was 231.09 pmol oocyte-1 and 187.07 pmol oocyte-1 and 164.98 pmol oocyte-1 and 158.85 pmol oocyte-1 and the “PfCRTDd2_F145I PPQ uptake at 120 min” value (PfCRT^Dd2_F145I; [1]) was 355.30 pmol oocyte-1 and 204.11 pmol oocyte-1 and 281.88 pmol oocyte-1 and 284.17 pmol oocyte-1 and 64.48 pmol oocyte-1 and 488.71 pmol oocyte-1. The “PfCRTDd2_F145I PPQ uptake at 180 min” value (PfCRT^Dd2_F145I; [1]) was 182.19 pmol oocyte-1 and 278.77 pmol oocyte-1 and 329.69 pmol oocyte-1 and 378.75 pmol oocyte-1, the “PfCRTDd2_F145I-mediated PPQ uptake at 10 min” value (PfCRT^Dd2_F145I; [2]) was 21.57 pmol oocyte-1 and 6.53 pmol oocyte-1 and 19.62 pmol oocyte-1 and 21.70 pmol oocyte-1 and 15.89 pmol oocyte-1 and the “PfCRTDd2_F145I-mediated PPQ uptake at 30 min” value (PfCRT^Dd2_F145I; [2]) was 25.28 pmol oocyte-1 and 34.52 pmol oocyte-1 and 15.41 pmol oocyte-1. For the same molecule, the “PfCRTDd2_F145I-mediated PPQ uptake at 60 min” value (PfCRT^Dd2_F145I; [2]) was 39.58 pmol oocyte-1 and 153.01 pmol oocyte-1 and 36.72 pmol oocyte-1 and 18.65 pmol oocyte-1 and 19.44 pmol oocyte-1 and 16.68 pmol oocyte-1 and 27.82 pmol oocyte-1 and 75.44 pmol oocyte-1 and 27.59 pmol oocyte-1 and 15.54 pmol oocyte-1 and 75.68 pmol oocyte-1, the “PfCRTDd2_F145I-mediated PPQ uptake at 90 min” value (PfCRT^Dd2_F145I; [2]) was 89.48 pmol oocyte-1 and 78.18 pmol oocyte-1 and 49.49 pmol oocyte-1 and 48.14 pmol oocyte-1 and the “PfCRTDd2_F145I-mediated PPQ uptake at 120 min” value (PfCRT^Dd2_F145I; [2]) was 115.65 pmol oocyte-1 and 103.98 pmol oocyte-1 and 53.31 pmol oocyte-1 and 32.06 pmol oocyte-1 and 52.11 pmol oocyte-1 and 114.20 pmol oocyte-1. The “PfCRTDd2_F145I-mediated PPQ uptake at 180 min” value (PfCRT^Dd2_F145I; [2]) was 46.86 pmol oocyte-1 and 115.74 pmol oocyte-1 and 109.59 pmol oocyte-1 and 113.43 pmol oocyte-1, the “PfCRTDd2_F145I-mediated PPQ uptake at 50 µM PPQ” value (PfCRT^Dd2_F145I; 50 µM PPQ, single replicates) was 27.82 pmol oocyte-1 h-1 and 75.44 pmol oocyte-1 h-1 and 27.59 pmol oocyte-1 h-1 and 75.68 pmol oocyte-1 h-1 and 39.58 pmol oocyte-1 h-1 and 36.72 pmol oocyte-1 h-1 and 42.92 pmol oocyte-1 h-1 and the “PfCRTDd2_F145I-mediated PPQ uptake at 100 µM PPQ” value (PfCRT^Dd2_F145I; 100 µM PPQ, single replicates) was 60.49 pmol oocyte-1 h-1 and 74.22 pmol oocyte-1 h-1 and 87.33 pmol oocyte-1 h-1 and 56.31 pmol oocyte-1 h-1. The “PfCRTDd2_F145I-mediated PPQ uptake at 200 µM PPQ” value (PfCRT^Dd2_F145I; 200 µM PPQ, single replicates) was 98.82 pmol oocyte-1 h-1 and 131.61 pmol oocyte-1 h-1 and 62.02 pmol oocyte-1 h-1 and 88.46 pmol oocyte-1 h-1, the “PfCRTDd2_F145I-mediated PPQ uptake at 300 µM PPQ” value (PfCRT^Dd2_F145I; 300 µM PPQ, single replicates) was 115.45 pmol oocyte-1 h-1 and 117.23 pmol oocyte-1 h-1 and 91.14 pmol oocyte-1 h-1 and the “PfCRTDd2_F145I-mediated PPQ uptake at 400 µM PPQ” value (PfCRT^Dd2_F145I; 400 µM PPQ, single replicates) was 130.32 pmol oocyte-1 h-1 and 101.99 pmol oocyte-1 h-1 and 105.11 pmol oocyte-1 h-1. For the same molecule, the “PfCRTDd2_F145I-mediated PPQ uptake at 500 µM PPQ” value (PfCRT^Dd2_F145I; 500 µM PPQ, single replicates) was 124.15 pmol oocyte-1 h-1 and 149.83 pmol oocyte-1 h-1 and 96.18 pmol oocyte-1 h-1, the “PfCRTDd2_F145I-mediated PPQ uptake at 10 µM PPQ” value (PfCRT^Dd2_F145I; [3]) was 11.21 pmol oocyte-1 h-1 and 11.88 pmol oocyte-1 h-1 and 9.04 pmol oocyte-1 h-1 and the “PfCRTDd2_F145I-mediated PPQ uptake at 50 µM PPQ” value (PfCRT^Dd2_F145I; [3]) was 39.58 pmol oocyte-1 h-1 and 36.72 pmol oocyte-1 h-1 and 42.92 pmol oocyte-1 h-1 and 27.82 pmol oocyte-1 h-1 and 75.44 pmol oocyte-1 h-1 and 27.59 pmol oocyte-1 h-1 and 75.68 pmol oocyte-1 h-1. The “PfCRTDd2_F145I-mediated PPQ uptake at 100 µM PPQ” value (PfCRT^Dd2_F145I; [3]) was 60.49 pmol oocyte-1 h-1 and 74.22 pmol oocyte-1 h-1 and 87.33 pmol oocyte-1 h-1 and 56.31 pmol oocyte-1 h-1, the “PfCRTDd2_F145I-mediated PPQ uptake at 200 µM PPQ” value (PfCRT^Dd2_F145I; [3]) was 98.82 pmol oocyte-1 h-1 and 131.61 pmol oocyte-1 h-1 and 62.02 pmol oocyte-1 h-1 and 88.46 pmol oocyte-1 h-1 and the “PfCRTDd2_F145I-mediated PPQ uptake at 300 µM PPQ” value (PfCRT^Dd2_F145I; [3]) was 115.45 pmol oocyte-1 h-1 and 117.23 pmol oocyte-1 h-1 and 91.14 pmol oocyte-1 h-1. For the same molecule, the “PfCRTDd2_F145I-mediated PPQ uptake at 400 µM PPQ” value (PfCRT^Dd2_F145I; [3]) was 130.32 pmol oocyte-1 h-1 and 101.99 pmol oocyte-1 h-1 and 105.11 pmol oocyte-1 h-1, the “PfCRTDd2_F145I-mediated PPQ uptake at 500 µM PPQ” value (PfCRT^Dd2_F145I; [3]) was 124.15 pmol oocyte-1 h-1 and 149.83 pmol oocyte-1 h-1 and 96.18 pmol oocyte-1 h-1 and the Km (PfCRT^Dd2_F145I; Michaelis-Menten fit, 10-500 μM drug, 60 min, pH 6, read-out: KM, Michaelis constant) was 115 ± 7 µM. The “increase of Vmax by the F145I substitution” value (PfCRT^Dd2_F145I; versus PfCRT^Dd2) was 14%, the “water-injected PPQ uptake at 10 min” value (water-injected oocytes) was 41.08 pmol oocyte-1 and 24.73 pmol oocyte-1 and 20.03 pmol oocyte-1 and 11.15 pmol oocyte-1 and 47.19 pmol oocyte-1 and 42.00 pmol oocyte-1 and 43.00 pmol oocyte-1 and 24.03 pmol oocyte-1 and 24.68 pmol oocyte-1 and the “water-injected PPQ uptake at 30 min” value (water-injected oocytes) was 39.93 pmol oocyte-1 and 81.64 pmol oocyte-1 and 110.61 pmol oocyte-1 and 36.25 pmol oocyte-1 and 63.03 pmol oocyte-1 and 70.49 pmol oocyte-1 and 61.47 pmol oocyte-1. The “water-injected PPQ uptake at 60 min” value (water-injected oocytes) was 160.55 pmol oocyte-1 and 290.10 pmol oocyte-1 and 103.17 pmol oocyte-1 and 89.81 pmol oocyte-1 and 146.11 pmol oocyte-1 and 119.20 pmol oocyte-1 and 106.15 pmol oocyte-1 and 92.97 pmol oocyte-1 and 66.51 pmol oocyte-1 and 37.81 pmol oocyte-1 and 81.90 pmol oocyte-1 and 130.00 pmol oocyte-1 and 94.16 pmol oocyte-1 and 115.25 pmol oocyte-1 and 26.09 pmol oocyte-1, the “water-injected PPQ uptake at 90 min” value (water-injected oocytes) was 141.60 pmol oocyte-1 and 108.94 pmol oocyte-1 and 115.49 pmol oocyte-1 and 110.70 pmol oocyte-1 and 135.43 pmol oocyte-1 and 121.15 pmol oocyte-1 and 104.62 pmol oocyte-1 and the “water-injected PPQ uptake at 120 min” value (water-injected oocytes) was 303.20 pmol oocyte-1 and 211.45 pmol oocyte-1 and 192.46 pmol oocyte-1 and 188.86 pmol oocyte-1 and 88.47 pmol oocyte-1 and 177.90 pmol oocyte-1 and 230.86 pmol oocyte-1 and 32.42 pmol oocyte-1 and 62.20 pmol oocyte-1 and 374.51 pmol oocyte-1 and 406.68 pmol oocyte-1. The “water-injected PPQ uptake at 180 min” value (water-injected oocytes) was 179.29 pmol oocyte-1 and 189.51 pmol oocyte-1 and 135.33 pmol oocyte-1 and 198.05 pmol oocyte-1 and 192.50 pmol oocyte-1 and 163.03 pmol oocyte-1 and 220.09 pmol oocyte-1 and 265.31 pmol oocyte-1 and 192.47 pmol oocyte-1.
